The record followed here is article PMC4788259 (PLoS Neglected Tropical Diseases, 2016).

The subject of the experiment is E. multilocularis metacestodes. Kind of experiment: PGI assay: phosphoglucose isomerase release from damaged metacestodes. The experiment is classed as cell-based, Echinococcus multilocularis. As to conditions: 10 μM, 5 days, single wells, relative to DB1127 (10 μM). Put shortly:
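E. multilocularis metacestode vesicles (strain H95, grown in BALB/c mice, 2–4 mm diameter) were exposed in vitro to compounds for 5 days. Damage was read as phosphoglucose isomerase released into the medium. Initial screening used 10 μM in single wells, with 0.1% DMSO as negative control. EC50 values were derived from this read-out.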
As to `O=C(NCc1ccco1)C1CCN(S(=O)(=O)c2ccc(Cl)cc2)CC1` [MMV006188], the “PGI (% of DB1127 at 10 uM)” value was -16.08%.
Consider `CN1CCN(c2c3c(c(C#N)c4nc5ccccc5n24)CCC3)CC1` [MMV008127], for which the “PGI (% of DB1127 at 10 uM)” value is recorded as -35.30%.
As for `Cc1cc(NC(=O)c2cccc(C(F)(F)F)c2)n(-c2nc(-c3ccc4c(c3)OCO4)cs2)n1` [MMV396681], the “PGI (% of DB1127 at 10 uM)” value is -33.55%.
With `O=C(NC1CCCC1)c1ccc(N2CCC(NCc3cccc(C(F)(F)F)c3)CC2)cc1` [MMV666070] the figure was -8.11%.
With `Cc1cc(N2CCCC2)nc(Nc2ccc(NC(=O)CCc3ccccc3)cc2)n1` [MMV396669], the “PGI (% of DB1127 at 10 uM)” value was -21.92%.
Take `COc1ccc(Nc2nc(N/N=C/c3ccc(O)cc3)nc(Nc3ccc([N+](=O)[O-])cc3)n2)cc1` [MMV666689]: the “PGI (% of DB1127 at 10 uM)” value is on record as 5.99%.
For the compound `CCOc1ccc(N2C(N)=NC(N)=NC2(C)C)cc1.Cl` [MMV667486], the “PGI (% of DB1127 at 10 uM)” value is -3.47%.
With `Cc1ccc(OCCCCCCNCCO)c(C)c1` [MMV666020] the figure was 2.96%; with `O=C(Nc1nc(-c2ccccn2)cs1)c1ccccc1Br` [MMV665909], -125.86%; with `Cn1c(C(=O)c2cccc3ccccc23)nc2ccccc21` [MMV665824], -1.12%.
With `Cc1ccc(N2C(=O)C3C(C2=O)C2(c4ccccc4)C(=O)C3(c3ccccc3)C(c3ccccc3)=C2c2ccccc2)cc1` (stereo not shown) [MMV666062] the figure was -37.70%; with `COc1ccc(N2CCN(C(CNC(=O)C3CCCCC3)c3ccc4c(c3)OCO4)CC2)cc1` (stereo not shown) [MMV019662], -7.72%; with `CCc1ccc(Nc2cc(C)c3ccc(O)cc3n2)cc1.Cl` [MMV000570], -6.94%.
With `COc1cccc(C=Cc2nc(=O)c3ccccc3o2)c1OC` [MMV666693] the figure was -16.84%; with `CCOc1c(Br)cc(C2C(C(=O)OC)=CN(C)C=C2C(=O)OC)cc1OC` [MMV006764], -0.44%.
As to `Br.CCN(CC)S(=O)(=O)c1ccc(-c2csc(Nc3ccc(C)c(C)c3)n2)cc1` [MMV009108], the “PGI (% of DB1127 at 10 uM)” value is 14.04%.
In the case of `CCN(CC)c1cc(C)c2cc(NC(=O)c3cccc(OC)c3)ccc2n1` [MMV000498], the “PGI (% of DB1127 at 10 uM)” value worked out at 4.05%.
With `CCCOCc1cc(CN2CCN(c3cccc(Cl)c3)CC2)c(O)c2ncccc12` [MMV000787] the figure was 45.98%.
`COc1ccc(CCN2CCC(CN(C)Cc3cnn(-c4ccccc4)c3)CC2)cc1` [MMV666069]: the “PGI (% of DB1127 at 10 uM)” value is -33.62%.
Take `CN1CCN(c2ccc(Nc3c4ccccc4nc4ccccc34)cc2)CC1` [MMV006172]: the “PGI (% of DB1127 at 10 uM)” value amounted to 2.41%.
With `COc1cc(CNCCc2ccc(Cl)cc2)cc(OC)c1O` [MMV128432] the figure was -10.12%; with `Cc1ccc2cc3c(N)c4c(C)ccc(C)c4nc3nc2c1` [MMV666079], -43.85%; with `CCCn1c(=N)c(C(=O)NC2CCCCC2)cc2c(=O)n3cccc(C)c3nc21` [MMV008829], -2.96%.
`O=C(Nc1ccsc1C(=O)NC1CCCCC1)c1ccc(F)cc1` [MMV665939]: the “PGI (% of DB1127 at 10 uM)” value is recorded as -15.17%.
Take `COc1cc(OC)cc(N2C(=O)N(Cc3ccc(C(C)(C)C)cc3)c3ccccc3S2(=O)=O)c1` [MMV008173]: the “PGI (% of DB1127 at 10 uM)” value is listed as -29.78%.
Consider `CC(C)=CCN1CCC(C(=O)Nc2ccc(-c3nc4ccccc4[nH]3)cc2)CC1` [MMV665946], for which the “PGI (% of DB1127 at 10 uM)” value was -26.45%.
With `COc1ccc(C)c2sc(N(Cc3cccnc3)C(=O)c3ccc(C#N)cc3)nc12` [MMV001241] the figure was -0.13%; with `O=C(O)C(=O)O.Oc1ccc(Br)cc1CN1CCN(Cc2cccc(F)c2)CC1` [MMV000356], -18.68%.
With `Br.Cc1ccc(C)c(-c2csc(Nc3ccc(C)c(C)c3)n2)c1` [MMV007654] the figure was 3.26%; with `CCOC(=O)c1cnc2ccc(OC)cc2c1Nc1ccc(N2CCN(C)CC2)cc1` [MMV000704], 8.26%; with `Oc1c(C(Nc2ccccn2)c2cccc(Oc3ccccc3)c2)ccc2cccnc12` (stereo not shown) [MMV665814], -6.04%.
In the case of `COc1ccc(C2c3ccc4ccccc4c3Oc3ncn(CCCN(C)C)c(=N)c32)cc1` (stereo not shown) [MMV667491], the “PGI (% of DB1127 at 10 uM)” value came out at 39.81%.
Regarding `CCOC(=O)c1cnc2c(C)cc(C)cc2c1Nc1ccc(OC)c(OC)c1` [MMV008294], the “PGI (% of DB1127 at 10 uM)” value is listed as -43.41%.
Turning to `Nc1ccc(-c2nc3cc(Cc4ccc5[nH]c(-c6ccc(N)cc6)nc5c4)ccc3[nH]2)cc1` [MMV665943], the “PGI (% of DB1127 at 10 uM)” value was determined as 9.49%.
As for `O=C(Nc1ccc(F)c(Cl)c1)Nc1ccc(Cl)c(Cl)c1` [MMV665953], the “PGI (% of DB1127 at 10 uM)” value was determined as 213.83%.
On to `COc1ccc2c(c1)C1(Nc3ccccc3-c3nc4ccccc4n31)C(=O)N2` (stereo not shown) [MMV396749], for which the “PGI (% of DB1127 at 10 uM)” value was 0.0365%.
As for `CCOc1ccc(-c2nonc2NC(=O)c2cccc(C)c2)cc1OCC` [MMV665805], the “PGI (% of DB1127 at 10 uM)” value was -25.24%.
Take `FC(F)(F)c1ccc(Nc2nnnc3ccccc23)cc1` [MMV665935]: the “PGI (% of DB1127 at 10 uM)” value is on record as -27.43%.
In the case of `COc1ccc2nc(C)cc(Nc3ccccc3O)c2c1` [MMV274073], the “PGI (% of DB1127 at 10 uM)” value is -1.78%.
With `COc1ccc(/C=C2/SC(=Nc3ccccc3)NC2=O)cc1` [MMV665836], the “PGI (% of DB1127 at 10 uM)” value was -11.27%.
With `O=C(Nc1ccc(Cl)cc1)N1CCN(c2ccc3nncn3n2)CC1` [MMV665917] the figure was -87.17%.
In the case of `CC(O)(c1ccc(Cl)cc1)C(CN1CCCCC1)c1ccccc1.Cl` (stereo not shown) [MMV000620], the “PGI (% of DB1127 at 10 uM)” value was -136.22%.
For `Cc1ccc(C(=O)c2oc3ccc4c(C)cc(=O)oc4c3c2C)cc1` [MMV086103], the “PGI (% of DB1127 at 10 uM)” value was -6.30%.
As to `O=C(c1ccccc1F)N(Cc1ccc(Cl)cc1)c1ccccn1` [MMV665899], the “PGI (% of DB1127 at 10 uM)” value is -103.42%.
For `COCCn1c(C)nc2ccccc2c1=O` [MMV665904], the “PGI (% of DB1127 at 10 uM)” value is given as -26.17%.
With `O=C(Nc1ccc(C23CC4CC(CC(c5ccccc5)(C4)C2)C3)cc1)c1cccs1` [MMV007574] the figure was -11.28%; with `OC(CNCC1CCCO1)Cn1c2ccc(Cl)cc2c2cc(Cl)ccc21` (stereo not shown) [MMV396736], 50.77%.
For `CCCN(CCC)CCCNC(=O)c1cc2c(-c3ccc(OC)c(OC)c3)nn(C)c2s1` [MMV000561], the “PGI (% of DB1127 at 10 uM)” value was -1.54%.
Take `COc1ccccc1CNC(=O)CCn1c(=O)[nH]c2ccccc2c1=O` [MMV665916]: the “PGI (% of DB1127 at 10 uM)” value was -47.23%.
Regarding `Cc1ccccc1OCCSc1nc2ccc(NC(=O)c3cccs3)cc2s1` [MMV007396], the “PGI (% of DB1127 at 10 uM)” value is -6.56%.
With `COc1cc(C(=O)ON=C(N)Cc2cccc3ccccc23)cc(OC)c1OC` [MMV666687] the figure was 1.57%.
For `O=C(CCl)NCCOc1ccc(Cl)cc1Cl` [MMV665927], the “PGI (% of DB1127 at 10 uM)” value stood at 24.95%.
Regarding `CCN(CC)CCNc1ccnc2cc(Cl)ccc12` [MMV006087], the “PGI (% of DB1127 at 10 uM)” value is -37.06%.
Turning to `CN1C=C(c2ccc3ccccc3n2)C(c2c[nH]c3ccccc23)c2ccccc21` (stereo not shown) [MMV008160], the “PGI (% of DB1127 at 10 uM)” value was -2.32%.
Take `CCOc1ccc(-n2cc(-c3ccccc3)c3c(SCc4cc(C)ccc4C)ncnc32)cc1` [MMV085471]: the “PGI (% of DB1127 at 10 uM)” value is -19.26%.
With `CCCc1c(CC)c(=N)c2ccccc2n1C` [MMV008416] the figure was -40.39%.
Take `Cc1sc(NC(=O)c2ccco2)c(C(c2cccnc2)N2CCC(Cc3ccccc3)CC2)c1C` (stereo not shown) [MMV396663]: the “PGI (% of DB1127 at 10 uM)” value is listed as -1.97%.
Take `Clc1ccc2c(N3CCCC3)ccnc2c1` [MMV007363]: the “PGI (% of DB1127 at 10 uM)” value is on record as -15.91%.
In the case of `CC(C)OCc1cc(CN2CCN(c3cccc(Cl)c3)CC2)c(O)c2ncccc12` [MMV000788], the “PGI (% of DB1127 at 10 uM)” value is -14.40%.
Turning to `CCCCCCn1c(=N)n(CC(O)COc2cccc(C)c2)c2ccccc21.Cl` (stereo not shown) [MMV000445], the “PGI (% of DB1127 at 10 uM)” value was determined as 130.28%.
With `CCOc1ccc(/C=C/c2nc(=O)c3ccccc3o2)cc1` [MMV665940], the “PGI (% of DB1127 at 10 uM)” value is -92.49%.
For `CC(C)(C)c1ccc(C(=O)Nc2nc3ccccc3s2)cc1` [MMV142383], the “PGI (% of DB1127 at 10 uM)” value is listed as -17.15%.
Turning to `CCOC(=O)c1ccc2[nH]c(-c3ccccc3)cc(=O)c2c1` [MMV006457], the “PGI (% of DB1127 at 10 uM)” value was 4.84%.
As for `COc1ccc(Br)cc1C1Nc2ccc3ccccc3c2C2=C1C(=O)CC(c1ccccc1)C2` (stereo not shown) [MMV020885], the “PGI (% of DB1127 at 10 uM)” value is listed as -45.01%.
With `COc1cccc(Nc2nc(NCCO)c3ccccc3n2)c1.Cl` [MMV011944], the “PGI (% of DB1127 at 10 uM)” value came out at 15.53%.
As for `CSC1=NC(=Nc2c(C)cccc2C)C2(CCC(C(C)(C)C)CC2)N1c1ccc(Cl)cc1` (stereo not shown) [MMV666596], the “PGI (% of DB1127 at 10 uM)” value is reported as -70.72%.
Consider `CCN(CC)c1ccc(NC(=O)c2cccs2)cc1` [MMV009060], for which the “PGI (% of DB1127 at 10 uM)” value is listed as -36.82%.
With `COc1ccc(-c2cc3c(SCC(=O)Nc4cc(C(F)(F)F)ccc4Cl)nccn3n2)cc1` [MMV396679] the figure was -59.06%; with `COc1cccc(NC(=O)[C@H](C(C)C)n2c(=O)[nH]c3ccccc3c2=O)c1` [MMV665878], -74.00%; with `COc1ccc(CCn2c(=N)c(C(=O)NCc3cccnc3)cc3c(=O)n4cccc(C)c4nc32)cc1` [MMV667488], -13.42%.
With `COCCNC(=O)c1ccc(OC2CCN(Cc3ccc(F)c(F)c3)CC2)c(Cl)c1` [MMV666072], the “PGI (% of DB1127 at 10 uM)” value was -116.21%.
As to `CCOc1ccc2nc(C)cc(Nc3ccc(N(C)C)cc3)c2c1.Cl` [MMV007020], the “PGI (% of DB1127 at 10 uM)” value is recorded as -3.98%.
On to `O=c1cc(NC2CCN(CCCc3ccccc3)CC2)c2cc(Cl)ccc2o1` [MMV665786], for which the “PGI (% of DB1127 at 10 uM)” value is -0.88%.
